US20110230472A1, “RING-FUSED AZOLE DERIVATIVE HAVING PI3K-INHIBITING ACTIVITY” (Shionogi & Co., Ltd., priority 2008, published 2011)

Molecular target: PI-3 kinase γ (Homo sapiens, UniProt P48736)
Experiment: PI3Kγ inhibitory activity, PI3-kinase HTRF assay (inhibition ratio)
Format: biochemical
Settings: 0.5 h
Method: The PI3Kγ inhibitory activity of a compound was evaluated using PI3-kinase HTRF™ assay (Millipore) according to the following procedure:
To each well of a testing plate, 5 μL of a compound solution containing 10% DMSO (200 μmol/L or 40 μmol/L as the concentration of the compound), 5 μL of a substrate solution (40 μmol/L phosphatidylinositol (4,5)-bisphosphate, 20 mmol/L MgCl2, 10 mmol/L DTT), and 5 μL of a enzyme solution (80 μg/mL PI-3 kinase γ, 10 mmol/L MgCl2, 5 mmol/L DTT) were added, and then allowed to stand for 10 minutes.
Then, 5 μL of a reaction solution (40 μmol/L ATP, 10 mmol/L MgCl2, 5 mmol/L DTT) was added thereto. After reacting for 30 minutes at room temperature, 5 μL of a solution containing EDTA and biotinylated phosphatidylinositol (3,4,5)-triphosphate were added to quench the reaction.
5 μL of a detection reagent containing a europium-labeled anti-GST antibody, the GST-tagged PH domain, and allophycocyanin-labeled streptavidin was added thereto. After 18 hours, HTRF (excitation wavelength: 330 nm, measured wavelengths: 620 nm and 665 nm) was measured.
HTRF ratio was defined as the value obtained by dividing the amount of fluorescence obtained at the measured wavelength 665 nm by the amount of fluorescence obtained at 620 nm. The HTRF ratio in the absence of a compound was defined as 100% activity and the HTRF ratio in the absence of PI-3 kinase γ was defined as 0% activity to calculate an inhibition ratio which was defined as the PI3Kγ inhibitory activity of a compound at 50 μmol/L or 10 μmol/L.

Sequence of PI-3 kinase γ (P48736 whole entry): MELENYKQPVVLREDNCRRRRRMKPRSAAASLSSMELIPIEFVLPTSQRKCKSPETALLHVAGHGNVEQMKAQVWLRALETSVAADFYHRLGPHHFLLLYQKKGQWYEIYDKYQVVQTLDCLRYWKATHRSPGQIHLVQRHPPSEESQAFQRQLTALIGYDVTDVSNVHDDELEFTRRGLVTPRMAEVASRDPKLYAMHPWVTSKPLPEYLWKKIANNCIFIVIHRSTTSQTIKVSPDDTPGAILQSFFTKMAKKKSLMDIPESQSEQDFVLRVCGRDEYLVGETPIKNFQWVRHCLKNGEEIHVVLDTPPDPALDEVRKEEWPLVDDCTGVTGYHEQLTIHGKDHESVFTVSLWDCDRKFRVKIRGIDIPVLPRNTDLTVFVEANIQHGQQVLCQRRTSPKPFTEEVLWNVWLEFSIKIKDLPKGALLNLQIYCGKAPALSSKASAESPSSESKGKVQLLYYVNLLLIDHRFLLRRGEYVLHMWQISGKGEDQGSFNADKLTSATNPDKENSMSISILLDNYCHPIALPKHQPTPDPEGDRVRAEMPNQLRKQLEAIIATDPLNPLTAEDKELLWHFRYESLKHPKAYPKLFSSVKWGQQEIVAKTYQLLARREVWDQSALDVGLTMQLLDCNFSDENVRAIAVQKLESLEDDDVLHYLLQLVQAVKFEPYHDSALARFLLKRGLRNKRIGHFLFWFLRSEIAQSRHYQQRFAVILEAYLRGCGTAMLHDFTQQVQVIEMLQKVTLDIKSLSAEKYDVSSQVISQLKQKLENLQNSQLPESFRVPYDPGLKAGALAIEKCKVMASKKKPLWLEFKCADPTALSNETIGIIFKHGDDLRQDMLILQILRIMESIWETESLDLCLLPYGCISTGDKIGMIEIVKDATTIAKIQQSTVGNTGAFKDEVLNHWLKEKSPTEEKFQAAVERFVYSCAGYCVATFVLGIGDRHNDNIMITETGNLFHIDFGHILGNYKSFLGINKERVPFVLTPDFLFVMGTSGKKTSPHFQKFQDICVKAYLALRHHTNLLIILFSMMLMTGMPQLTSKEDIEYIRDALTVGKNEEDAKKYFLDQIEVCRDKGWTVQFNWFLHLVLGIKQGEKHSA

Row | SMILES | inhibition at 10 µM (compound at 10 μmol/L) | inhibition at 50 µM (PI3Kγ, compound at 50 μM) | further results
1 | CN1CCc2cc(N3CCn4nc(NC(=O)c5ccccc5)cc43)ccc2C1=O [Compound I-324] | 93% |  | 
2 | O=C(Nc1cc2n(n1)CCN2c1cccc(Cl)c1)c1cccc(O)c1 [Compound I-240] |  | 91% | 
3 | CNC(=O)Nc1cc2n(n1)CCN2c1nc(C)c(C(=O)O)s1 [Compound I-201] |  | ≥ 95% | 
4 | CNC(=O)Nc1nc2c(s1)CN(c1cc(Oc3ccccc3)nc(OC)n1)CC2 [Compound I-138] |  | ≥ 95% | 
5 | CNC(=O)Nc1cc2n(n1)CCN2c1ccc2c(c1)CCN(C)C2=O [Compound I-336] | 89% |  | 
6 | COc1cc(N2CCc3nc(NC(=O)Nc4ccccc4Cl)sc3C2)nc(OC)n1 [Compound I-430] | 84% |  | 
7 | COc1cccc(C(=O)N2CCc3nc(NC(=O)Nc4ccccc4C(=O)NC(C)C)sc3C2)c1 [Compound I-484] | ≥ 95% |  | 
8 | CNC(=O)Nc1cc2n(n1)CCN2c1cc(C(=O)O)cc(-c2ccccc2)c1 [Compound I-163] |  | ≥ 95% | 
9 | COc1cc(N2CCc3nc(NC(=O)CC(=O)OC(C)(C)C)sc3C2)nc(OC)n1 [Compound I-264] |  |  | inhibition at 10 µM (PI3Kγ, compound at 10 μM): 89%
10 | CN1CCc2cc(N3CCn4nc(NC(=O)C(=O)c5cccs5)cc43)ccc2C1=O [Compound I-450] | ≥ 95% |  | 
11 | CNC(=O)Nc1nc2c(s1)CN(c1cc(OC)nc(OC)n1)CC2 [Compound I-107] |  | ≥ 95% | 
12 | COc1ccc(C(=O)N2CCc3nc(NC(=O)Nc4ccccc4C(=O)NC(C)C)sc3C2)cc1 [Compound I-483] | ≥ 95% |  | 
13 | COc1cc(N2CCc3nc(NC(=O)Cc4cccc(C(F)(F)F)c4)sc3C2)nc(OC)n1 [Compound I-269] |  |  | inhibition at 10 µM (PI3Kγ, compound at 10 μM): ≥ 95%
14 | CNC(=O)Nc1nc2c(s1)CN(c1cc(C(N)=O)nc(Cl)n1)CC2 [Compound I-108] |  | ≥ 95% | 
15 | CC(C)(C)OC(=O)CCNC(=O)Nc1cc2n(n1)CCN2c1cccc(Cl)c1 [Compound I-212] |  | 80% | 
16 | O=C(O)CNC(=O)Nc1cc2n(n1)CCN2c1ccccc1 [Compound I-132] |  | ≥ 95% | 
17 | CN1CCc2cc(N3CCn4nc(NC(=O)c5cccc(F)c5)cc43)ccc2C1=O [Compound I-464] | ≥ 95% |  | 
18 | O=C(Nc1cc2n(n1)CCN2c1cccc(Cl)c1)c1ccccc1 [Compound I-219] |  | ≥ 95% | 
19 | CNC(=O)Nc1cc2n(n1)CCN2c1cccc(-c2csc(NC(=O)OC(C)(C)C)n2)c1 [Compound I-188] |  | 91% | 
20 | COc1cc(N2CCc3nc(NC(=O)Nc4ccccn4)sc3C2)nc(OC)n1 [Compound I-302] | 85% |  | 
21 | CNC(=O)Nc1cc2n(n1)CCN2c1cccc(CC(=O)OC(C)(C)C)c1 [Compound I-152] |  | ≥ 95% | 
22 | CNC(=O)Nc1cc2n(n1)CCN2c1cc(Br)cc(C(=O)NCCC(=O)O)c1 [Compound I-186] |  | 89% | 
23 | CNC(=O)Nc1cc2n(n1)CCN2c1cc(C(=O)N2CCOCC2)cc(-c2cccc(O)c2)c1 [Compound I-220] |  | ≥ 95% | 
24 | CNC(=O)Nc1cc2n(n1)CCN2c1cc(C(=O)N2CCOCC2)cc(C2=CCCCC2)c1 [Compound I-231] |  | ≥ 95% | 

Row | SMILES | inhibition at 10 µM (compound at 10 μmol/L) | inhibition at 50 µM (PI3Kγ, compound at 50 μM) | further results
25 | COc1cc(N2CCc3nc(NC(=O)NCCC(=O)N4CCOCC4(C)C)sc3C2)nc(OC)n1 [Compound I-328] | 87% |  | 
26 | CN1CCc2cc(N3CCn4nc(NC(=O)c5cnc(N6CCC[C@H]6C(=O)O)s5)cc43)ccc2C1=O [Compound I-536] | ≥ 95% |  | 
27 | CC(=O)Nc1cc2n(n1)CCN2C(=O)OC(C)(C)C [Compound I-130] |  | ≥ 95% | 
28 | CN1CCc2cc(N3CCn4nc(NC(=O)c5csc(C(=O)NCC(C)(C)C)c5)cc43)ccc2C1=O [Compound I-439] | ≥ 95% |  | 
29 | CNC(=O)Nc1nc2c(s1)CN(c1cc(N)nc(Cl)n1)CC2 [Compound I-122] |  | 76% | 
30 | CN1CCc2cc(N3CCn4nc(NC(=O)c5cccc(C(=O)O)c5)cc43)ccc2C1=O [Compound I-472] | ≥ 95% |  | 
31 | CNC(=O)Nc1cc2n(n1)CCN2c1cccc(C(=O)O)c1 [Compound I-91] |  | ≥ 95% | 
32 | CN1CCc2cc(N3CCn4nc(NC(=O)c5ccncc5)cc43)ccc2C1=O [Compound I-360] | ≥ 95% |  | 
33 | CNC(=O)Nc1nc2c(s1)CN(c1nccc(C(F)(F)F)n1)CC2 [Compound I-95] |  | 93% | 
34 | CNC(=O)Nc1cc2n(n1)CCN2c1ccc2c(c1)NC(=O)CC2 [Compound I-227] |  | ≥ 95% | 
35 | O=C(Nc1cc2n(n1)CCN2c1cccc(Cl)c1)c1ccc2nccn2c1 [Compound I-241] |  | 84% | 
36 | CNC(=O)Nc1nc2c(s1)CN(c1cc(C(=O)OC)nc(Cl)n1)CC2 [Compound I-100] |  | ≥ 95% | 
37 | CN1CCc2cc(N3CCn4nc(NC(=O)N5CCCC5)cc43)ccc2C1=O [Compound I-453] | 76% |  | 
38 | CCOC(=O)CNC(=O)Nc1cc2n(n1)CCN2C(=O)OC(C)(C)C [Compound I-57] |  | ≥ 95% | 
39 | CCOC(=O)c1ccc(N2CCn3nc(NC(=O)NC)cc32)cc1 [Compound I-85] |  | ≥ 95% | 
40 | CN1CCc2cc(N3CCn4nc(NC(=O)[C@@H]5CCC(=O)N5)cc43)ccc2C1=O [Compound I-506] | 84% |  | 
41 | CNC(=O)Nc1cc2n(n1)CCN2c1cc(Br)cc(C(=O)O)c1 [Compound I-149] |  | ≥ 95% | 
42 | COc1cc(N2CCc3nc(NC(=O)c4ccsc4)sc3C2)nc(OC)n1 [Compound I-459] | 92% |  | 
43 | CNC(=O)Nc1cc2n(n1)CCN2c1ccc(C(=O)O)cc1 [Compound I-97] |  | ≥ 95% | 
44 | CC(C)CC(=O)Nc1ncc(C(=O)Nc2cc3n(n2)CCN3c2ccc3c(c2)CCN(C)C3=O)s1 [Compound I-533] | 95% |  | 
45 | O=C(Nc1cc2n(n1)CCN2c1cccc(Cl)c1)c1nccs1 [Compound I-245] |  | 76% | 
46 | CNC(=O)Nc1cc2n(n1)CCN2c1ccc2c(c1)CCC2=O [Compound I-193] |  | ≥ 95% | 
47 | CNC(=O)Nc1cc2n(n1)CCN2c1cc(Br)cc(C(=O)NC(C)(C)C)c1 [Compound I-180] |  | ≥ 95% | 
48 | COc1ccc(Nc2cc3n(n2)CCN3C(=O)c2ccccc2)cc1 [Compound I-4] |  | ≥ 95% | 

Row | SMILES | inhibition at 10 µM (compound at 10 μmol/L) | inhibition at 50 µM (PI3Kγ, compound at 50 μM) | further results
49 | CNC(=O)Nc1nc2c(s1)CN(c1cc(N(C)C)nc(OC)n1)CC2 [Compound I-362] | ≥ 95% |  | 
50 | O=C(Nc1cc2n(n1)CCN2c1cccc(Cl)c1)c1cnco1 [Compound I-221] |  | ≥ 95% | 
51 | CC(Oc1cccc(C(=O)Nc2cc3n(n2)CCN3c2ccc3c(c2)CCN(C)C3=O)c1)C(N)=O (centres unmarked) [Compound I-468] | ≥ 95% |  | 
52 | COc1cc(N2CCc3nc(NC(=O)NCCC(=O)N(C)c4ccccc4)sc3C2)nc(OC)n1 [Compound I-274] |  |  | inhibition at 10 µM (PI3Kγ, compound at 10 μM): ≥ 95%
53 | COc1cccc(C(=O)Nc2cc3n(n2)CCN3c2ccc3c(c2)CCN(C)C3=O)c1 [Compound I-462] | ≥ 95% |  | 
54 | CN1CCc2cc(N3CCn4nc(NC(=O)c5csc6ccccc56)cc43)ccc2C1=O [Compound I-373] |  |  | inhibition at 50 µM (compound at 50 μmol/L): 82%
55 | CNC(=O)Nc1cc2n(n1)CCN2c1cc(Br)cc(C(N)=O)c1 [Compound I-178] |  | ≥ 95% | 
56 | COc1cc(N2CCc3nc(NC(=O)NCC(=O)OC(C)(C)C)sc3C2)nc(OC)n1 [Compound I-252] |  |  | inhibition at 10 µM (PI3Kγ, compound at 10 μM): 88%
57 | CCOC(=O)CNC(=O)Nc1cc2n(n1)CCN2c1ccccc1 [Compound I-129] |  | 81% | 
58 | COc1cc(N2CCc3nc(NC(=O)NCCCC(=O)OC(C)(C)C)sc3C2)nc(OC)n1 [Compound I-261] |  |  | inhibition at 10 µM (PI3Kγ, compound at 10 μM): 90%
59 | CN1CCc2cc(N3CCn4nc(NC(=O)OCc5ccccc5)cc43)ccc2C1=O [Compound I-314] | 88% |  | 
60 | CNC(=O)Nc1cc2n(n1)CCN2c1ccc(F)c(OC)c1 [Compound I-168] |  | ≥ 95% | 
61 | CC(=O)N1CCC(C(=O)Nc2cc3n(n2)CCN3c2cccc(Cl)c2)CC1 [Compound I-236] |  | 88% | 
62 | CNC(=O)Nc1cc2n(n1)CCN2c1cccnc1 [Compound I-80] |  | ≥ 95% | 
63 | CNC(=O)Nc1cc2n(n1)CCN2c1cc(C(=O)N2CCOCC2)cc(-c2cccnc2)c1 [Compound I-199] |  | 89% | 
64 | Nc1cc2n(n1)CCN2c1ccc2cnccc2c1 [Compound I-316] | 75% |  | 
65 | CNC(=O)Nc1nc2c(s1)CN(c1cc(C(=O)NC3CCCC3)nc(Cl)n1)CC2 [Compound I-110] |  | ≥ 95% | 
66 | COc1cccc(N2CCn3nc(NC(C)=O)cc32)c1 [Compound I-139] |  | ≥ 95% | 
67 | CN1CCc2cc(N3CCn4nc(NC(=O)c5ccc(S(C)(=O)=O)cc5)cc43)ccc2C1=O [Compound I-481] | 92% |  | 
68 | CNC(=O)Nc1cc2n(n1)CCN2c1ccc(C(=O)NC)s1 [Compound I-256] |  |  | inhibition at 10 µM (PI3Kγ, compound at 10 μM): 78%
69 | Cc1ccc(C(=O)N2CCc3nc(NC(=O)Nc4ccccc4C(=O)NC(C)C)sc3C2)cc1 [Compound I-515] | 85% |  | 
70 | Cc1ncsc1C(=O)Nc1cc2n(n1)CCN2c1ccc2c(c1)CCN(C)C2=O [Compound I-449] | ≥ 95% |  | 
71 | COc1cc(N2CCc3nc(NC(=O)N/C(C)=C\C(=O)NC(C)(C)C)sc3C2)nc(OC)n1 [Compound I-392] | ≥ 95% |  | 
